Where “and” joins values, the source holds several entries; their conditions need not be identical. Identical values can stand only once.
Experiments:
Format in all cases: cell-based
[1] = system: normal human dermal fibroblasts (NHDFs); test: Neosynthesis of total GAGs by NHDFs, [3H]-glucosamine incorporation; details: total GAGs, NHDFs, campaign 2, 10 ng/ml
Procedure: (§1) The effects of the compounds on the neosynthesis of total and sulfated glycosaminoglycans (GAGs) were studied on two cell models, normal human epidermal keratinocytes (NHEKs) and normal human dermal fibroblasts (NHDFs). The effects of these compounds were evaluated by measuring: • the incorporation of [3H]-glucosamine into the total GAGs neosynthesized by NHEKs and by NHDFs, • the incorporation of [35S]-sulfate into the sulfated GAGs neosynthesized by NHEKs and by NHDFs.
(§2) The fibroblasts were seeded into wells and cultured in culture medium for 24 hours. The medium was then replaced with culture medium containing or not containing (controt) the compounds to be tested or the reference (TGF-β at 10 ng/ml), then the cells were incubated for 72 hours with the addition of the [35S]-sulfate radioactive label (sulfated GAGs) or of the [3H]-glucosamine radioactive label (total GAGs) for the final 24 hours of incubation.
(§3) At the end of the incubation, the glycosaminoglycans were extracted from the cells with a chaotropic buffer. The GAGs were then purified by ion exchange chromatography: adsorption of the anionic molecules on Q-Sepharose beads and desorption of the molecules of low or medium anionic nature, with a suitable solution.
(§4) The radioactivity incorporated into the molecules left on the support (GAGs, predominantly) was measured by liquid scintillation.
(§5) All the experimental conditions were performed in n=3.
(§6) The inter-group comparisons were performed using Student's non-paired two-sided t-test. The statistical analyses can be interpreted if n≥5; however, for n<5, the data calculated are provided only by way of indication.

[2] = system: normal human dermal fibroblasts (NHDFs); test: Neosynthesis of sulfated GAGs by NHDFs, [35S]-sulfate incorporation; details: sulfated GAGs, NHDFs; for [35S]-Sulfate (cpm): single replicates
Procedure: as §1, §2, §3, §4, §5, §6

[3] = system: normal human epidermal keratinocytes (NHEKs); test: Neosynthesis of total GAGs by NHEKs, [3H]-glucosamine incorporation; details: total GAGs, NHEKs; for [3H]-glucosamine (cpm): single replicates
Procedure: as §1
(§7) The keratinocytes were seeded into wells and cultured in culture medium for 24 hours. The medium was then replaced with culture medium containing or not containing (control) the compounds to be tested or the reference (4-nitrophenyl β-D-xylopyranoside at 300 μM), then the cells were incubated for 72 hours with the addition of the [3H]-glucosamine radioactive label (total GAGs) or of the [35S]-sulfate radioactive label (sulfated GAGs) for the final 24 hours of incubation.
as §3, §4, §5, §6

[4] = system: normal human epidermal keratinocytes (NHEKs); test: Neosynthesis of sulfated GAGs by NHEKs, [35S]-sulfate incorporation; details: sulfated GAGs, NHEKs; for [35S]-Sulfate (cpm): single replicates
Procedure: as §1, §7, §3, §4, §5, §6

## TGF-β: reference for the fibroblast assays, at 10 ng/ml
[1]
  % Control: 331%
  Mean (cpm): 5167 cpm
[1]; single replicates
  [3H]-glucosamine (cpm): 5999 cpm and 4173 cpm and 5328 cpm
[2]; campaign 1, 10 ng/ml
  % Control: 208%
  Mean (cpm): 3433 cpm
  [35S]-Sulfate (cpm): 3397 cpm and 3492 cpm and 3411 cpm
[2]; campaign 2, 10 ng/ml
  % Control: 257%
  Mean (cpm): 1452 cpm
  [35S]-Sulfate (cpm): 1471 cpm and 1482 cpm and 1403 cpm

## O=[N+]([O-])c1ccc(O[C@@H]2OC[C@@H](O)[C@H](O)[C@H]2O)cc1 [4-Nitrophenyl β-D-xylopyranoside, 4-nitrophenyl β-D-xylopyranoside]
[3]; campaign 1, 300 μM
  % Control: 206%
  Mean (cpm): 26611 cpm
  [3H]-glucosamine (cpm): 26835 cpm and 26438 cpm and 26560 cpm
[3]; campaign 2, 300 μM
  % Control: 243%
  Mean (cpm): 20694 cpm
  [3H]-glucosamine (cpm): 22239 cpm and 20953 cpm and 18891 cpm
[4]; campaign 1, 300 μM
  % Control: 922%
  Mean (cpm): 62566 cpm
  [35S]-Sulfate (cpm): 60267 cpm and 63396 cpm and 64036 cpm
[4]; campaign 2, 300 μM
  % Control: 1029%
  Mean (cpm): 54615 cpm
[4]; campaign 2, 300 μM, listed as 4-Nitrophenyl B-D-xylopyranoside
  [35S]-Sulfate (cpm): 54440 cpm and 52841 cpm and 56564 cpm
